Experimental data: patent US7132420B2, “Aspartic protease inhibitors” (The United States of America as represented by the …, priority 1999, dated 2006)
Read-outs that look alike come from different tables or passages of the source.

Assays:
plasmepsin II = plasmepsin II (Plasmodium falciparum, UniProt P46925); experiment: biochemical; format: biochemical; conditions: Table 2; read-out: Pls II Ki
From the text: (§1) The HIV protease assay was done according to the protocol described in Example 35. The plasmepsin II assay was done according to the protocol used in Silva et al., Proc. Nat. Acad. Sci. USA, 93, pp. 10034–10039, September 1996 (Biochemstry). The cathepsin D assay was done according to the protocol described in Gulnik et al., FEBS Letters, 413, 379–384 (1997). The compounds illustrated in Table 2 are of the general formula (II), as described in Example 35.

HIV-1 protease = HIV-1 protease (Human immunodeficiency virus type 1 group M subtype B, UniProt P04585); experiment: HIV protease assay (Ki); format: biochemical; conditions: for HIV-1 protease % inhibition: Table 1 Ki column
From the text: (§2) This example illustrates the HIV-1 protease inhibition activity (Ki), HIV-1 antiviral data (EC50), and the toxicity against normal cells (IC50), for particular compounds of formula (I). The HIV protease assay was done according to the protocol described in Kageyama et al, Antimicrob. Agents Chemother., 37, 272 (1993). The HIV antiviral assay was done according to the protocol described in Weislow et al., J. National Cancer Inst. 81, 577 (1989).
as §1

cathepsin D = cathepsin D (Homo sapiens, UniProt P07339); experiment: cathepsin D assay (Ki); format: biochemical; conditions: Table 2; read-out: Cath D Ki
From the text: as §1

normal cells = experiment: toxicity against normal cells (IC50); format: cell-based; conditions: Table 1
From the text: as §2

HIV-1 = experiment: HIV antiviral assay (EC50); format: cell-based
From the text: The HIV protease assay was done according to the protocol described in Kageyama et al, Antimicrob. Agents Chemother., 37, 272 (1993). The HIV antiviral assay was done according to the protocol described in Weislow et al., J. National Cancer Inst. 81, 577 (1989).

[1] = Table 1, in nM, read-out: HIV-1 Ki
[2] = Human immunodeficiency virus 1, Table 1

plasmepsin II, sequence (P46925 125-453): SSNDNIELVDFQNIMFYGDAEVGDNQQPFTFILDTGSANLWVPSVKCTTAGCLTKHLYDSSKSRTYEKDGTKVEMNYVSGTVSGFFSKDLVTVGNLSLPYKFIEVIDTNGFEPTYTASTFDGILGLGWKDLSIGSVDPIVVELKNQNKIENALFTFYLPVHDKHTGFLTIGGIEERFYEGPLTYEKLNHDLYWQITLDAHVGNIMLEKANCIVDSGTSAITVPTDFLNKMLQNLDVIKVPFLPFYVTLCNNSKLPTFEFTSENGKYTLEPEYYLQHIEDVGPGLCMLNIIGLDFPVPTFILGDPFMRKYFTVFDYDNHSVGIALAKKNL
cathepsin D, sequence (P07339 65-412): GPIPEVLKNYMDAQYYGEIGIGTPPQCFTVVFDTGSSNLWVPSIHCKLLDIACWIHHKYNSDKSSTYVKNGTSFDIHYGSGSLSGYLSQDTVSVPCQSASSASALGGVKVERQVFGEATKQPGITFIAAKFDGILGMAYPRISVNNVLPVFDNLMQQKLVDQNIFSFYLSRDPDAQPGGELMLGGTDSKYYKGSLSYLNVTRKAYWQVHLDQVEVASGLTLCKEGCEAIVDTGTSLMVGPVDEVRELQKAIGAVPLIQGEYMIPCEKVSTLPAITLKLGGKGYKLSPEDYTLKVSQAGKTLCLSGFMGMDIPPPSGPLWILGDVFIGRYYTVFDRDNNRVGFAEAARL

SMILES	IC50 (normal cells) [µM]	Ki (HIV-1 protease; Table 1, read-out: HIV-1 Ki) [nM]	EC50 (HIV-1; Table 1) [nM]	further results
Cc1cccc(C)c1OCC(=O)N[C@@H](Cc1ccccc1)[C@@H](O)C[C@H](CC(C)C)NC(=O)OC(C)(C)C [(15), (2S,3S,5S)-5-[N-tert-butyloxycarbonylamino]-2-[N-[2-(2,6-dimethylphenoxy)acetyl]amino]-3-hydroxy-7-methyl-1-phenyloctane]				Ki (plasmepsin II): 210 nM; Ki (HIV-1 protease): 0.009 nM; Ki (HIV-1 protease; read-out: HIV-1 Ki, Table 2): 0.009 nM; Ki (cathepsin D): 6.1 nM
CC(C)C[C@@H](C[C@H](O)[C@H](Cc1ccccc1)NC(=O)OCc1ccccc1)NC(=O)[C@H](C(C)C)N1CCCNC1=O [(18)]	> 100	0.065 ± 0.016	600	
Cc1cccc(C)c1OCC(=O)N[C@@H](Cc1ccccc1)[C@@H](O)C[C@H](CC(C)C)NC(=O)N1CCOCC1 [(27)]			> 50000	Ki (plasmepsin II): 76 nM; Ki (HIV-1 protease; [1]): 37 nM; Ki (HIV-1 protease; Table 2, read-out: HIV-1 Ki): 0.37 nM; EC50 (HIV-1; Table 2): > 50000 nM; Ki (cathepsin D): 6.1 nM
CC(C)C[C@@H](C[C@H](O)[C@H](Cc1ccccc1)NC(=O)OCc1ccccc1)NC(=O)[C@@H](C(C)C)N1CCCNC1=O [(33)]				HIV-1 protease % inhibition (HIV-1 protease; @0.5 μM): 38%; HIV-1 protease % inhibition (HIV-1 protease; @1 μM): 65%
CC(C)C[C@@H](C[C@H](O)[C@H](Cc1ccccc1)NC(=O)N1CCOCC1)NC(=O)[C@H](C(C)C)N1CCCNC1=O [(36)]	> 100	0.571	2000	
Cc1c(O)cccc1C(=O)N[C@@H](Cc1ccccc1)[C@@H](O)C[C@H](CC(C)C)NC(=O)[C@H](C(C)C)N1CCCNC1=O [(37), (2S,3S,5S)-2-[N-(3-hydroxy-2-methylbenzoyl)amino]-5-[N-[[3-methyl-2S-(2-oxo-tetrahydropyrimidin-1-yl)]butyryl]amino]-3-hydroxy-7-methyl-1-phenyloctane]	> 10	0.104 ± 0.01	200	
Cc1cccc(C)c1OCC(=O)N[C@@H](CC(C)C)C[C@H](O)[C@H](Cc1ccccc1)NC(=O)OCc1ccccc1 [(40), (2S,3S,5S)-2-[N-(benzyloxycarbonyl)amino]-5-[N-[2-(2,6-dimethylphenoxy)acetyl]amino]-3-hydroxy-7-methyl-1-phenyloctane]		0.197		HIV-1 EC50 (μM) (HIV-1; Table 1): inactive
Cc1cccc(C)c1OCC(=O)N[C@@H](CC(C)C)C[C@H](O)[C@H](Cc1ccccc1)NC(=O)O[C@H]1CCOC1 [(41), (2S,3S,5S)-5-[N-[2-(2,6-dimethylphenoxy)acetyl]amino]-2-[N-(3S-terahydrofuranyloxycarbonyl]amino]-3-hydroxy-7-methyl-1-phenyloctane]	> 100	0.222	> 1000	
Cc1cccc(C)c1OCC(=O)N[C@@H](CC(C)C)C[C@H](O)[C@H](Cc1ccccc1)NC(=O)c1cccc(O)c1C [(42), (2S,3S,5S)-5-[N-[2-(2,6-dimethylphenoxy)acetyl]amino]-2-[N-(3-hydroxy-2-methylbenzoyl)amino]-3-hydroxy-7-methyl-1-phenyloctane]	> 100			Ki (HIV-1 protease): 0.311 nM; EC50 (HIV-1; [2]): 750 nM
CC(C)CC(CC(O)C(Cc1ccccc1)NC(=O)C(C(C)C)N1CCCNC1=O)NC(=O)OC(C)(C)C (stereo not drawn) [(44)]		1.49		HIV-1 EC50 (μM) (HIV-1; Table 1): in-active
Cc1cccc(C)c1OCC(=O)N[C@@H](Cc1ccccc1)[C@@H](O)C[C@H](CC(C)C)NC(=O)C1CCCN(C(=O)OCc2ccccc2)C1 (stereo partly drawn) [(47)]		1.5 ± 0.066		
Cc1cccc(C)c1OCC(=O)N[C@@H](Cc1ccccc1)[C@@H](O)C[C@H](CC(C)C)NC(=O)C1CCN(C(=O)OCc2ccccc2)CC1 [(48)]				Ki (HIV-1 protease; [1]): 113 nM
Cc1cccc(C)c1OCC(=O)N[C@@H](Cc1ccccc1)[C@@H](O)C[C@H](CC(C)C)NC(=O)[C@@H](N)C(C)C [(49)]	> 100		8000	Ki (HIV-1 protease; [1]): 4 nM
CC(=O)N[C@H](C(=O)N[C@@H](CC(C)C)C[C@H](O)[C@H](Cc1ccccc1)NC(=O)COc1c(C)cccc1C)C(C)C [(50)]	> 100	0.014	300	
Cc1cccc(C)c1OCC(=O)N[C@@H](Cc1ccccc1)[C@@H](O)C[C@H](CC(C)C)NC(=O)[C@@H](NS(C)(=O)=O)C(C)C [(51), (2S,3S,5S)-2-[N-[2-(2,6-dimethylphenoxy)acetyl]amino]-5-[N-[[N′-(methylsulfonyl)]valinyl]amino]-3-hydroxy-7-methyl-1-phenyloctane]	> 100	0.034	700	
COc1ccc(C(=O)N[C@H](C(=O)N[C@@H](CC(C)C)C[C@H](O)[C@H](Cc2ccccc2)NC(=O)COc2c(C)cccc2C)C(C)C)cc1 [(52), (2S,3S,5S)-2-[N-[2-(2,6.-dimethylphenoxy)acetyl]amino]-5-[N-[[N′-(p-methoxyphenylcarbonyl)]valinyl]amino]-3-hydroxy-7-methyl-1-phenyloctane]	> 93	0.03	200	
CC(C)(C)OC(=O)N[C@@H](Cc1ccccc1)C[C@H](O)[C@H](Cc1ccccc1)NC(=O)OCc1ccccc1 [(53), reference compound]	> 100		> 10000	Ki (HIV-1 protease; [1]): 1 nM
COc1ccc(S(=O)(=O)N[C@H](C(=O)N[C@@H](CC(C)C)C[C@H](O)[C@H](Cc2ccccc2)NC(=O)COc2c(C)cccc2C)C(C)C)cc1 [(54)]	84	0.0068	200	
Cc1cccc(C)c1OCC(=O)N[C@@H](Cc1ccccc1)[C@@H](O)C[C@H](CC(C)C)NC(=O)CC(C)C [(55)]	> 100		10000	Ki (HIV-1 protease; [1]): 1.5 nM
Cc1cccc(C)c1OCC(=O)N[C@@H](Cc1ccccc1)[C@@H](O)C[C@H](CC(C)C)NC(=O)[C@H](C)NC(=O)OCc1ccccc1 [(56), (2S,3S,5S)-5-[N-[N′-(benzyloxycarbonyl)alaninyl]amino]-2-[N-[2-(2,6-dimethylphenoxy)acetyl]amino]-3-hydroxy-7-methyl-1-phenyloctane]	> 100	0.195	1000	
Cc1cccc(C)c1OCC(=O)N[C@@H](Cc1ccccc1)[C@@H](O)C[C@H](CC(C)C)NC(=O)OCc1cncs1 [(57), (2S,3S,5S)-2-[N-[2-(2,6-dimethylphenoxy)acetyl]amino]-5-[N-[(thiazol-5-yl-methoxy)carbonyl]amino]-3-hydroxy-7-methyl-1-phenyloctane]	10			Ki (HIV-1 protease): 0.094 nM; EC50 (HIV-1; [2]): 1000 nM
Cc1cccc(C)c1OCC(=O)N[C@@H](Cc1ccccc1)[C@@H](O)C[C@H](CC(C)C)NC(=O)c1cccc(O)c1 [(58)]	10		2000	Ki (HIV-1 protease; [1]): 1.2 nM
CC(C)C[C@@H](C[C@H](O)[C@H](Cc1ccccc1)NC(=O)CNC(=O)OCc1ccccc1)NC(=O)c1cccc(O)c1 [(59)]			> 10000	Ki (HIV-1 protease; [1]): 108 nM
CC(C)C[C@@H](C[C@H](O)[C@H](Cc1ccccc1)NC(=O)[C@H](C)NC(=O)OCc1ccccc1)NC(=O)c1cccc(O)c1 [(61)]			> 10000	Ki (HIV-1 protease; [1]): 2 nM
CC[C@H](C)[C@H](NC(=O)OCc1ccccc1)C(=O)N[C@@H](Cc1ccccc1)[C@@H](O)C[C@H](CC(C)C)NC(=O)c1cccc(O)c1 [(62)]	> 10	0.157	1400	Ki (plasmepsin II): 1.2 nM; Ki (HIV-1 protease; Table 2, read-out: HIV-1 Ki): 0.157 nM
Cc1cccc(C)c1OCC(=O)N[C@@H](Cc1ccccc1)[C@@H](O)C[C@H](CC(C)C)NC(=O)[C@H](CC(N)=O)NC(=O)c1ccc2ccccc2n1 [(65)]		0.0382		
CC(C)C[C@@H](C[C@H](O)[C@H](Cc1ccccc1)NC(=O)[C@H](Cc1ccccc1)NC(=O)OCc1ccccc1)NC(=O)c1cccc(O)c1 [(67)]				Ki (plasmepsin II): 17 nM; HIV-1 EC50 (μM) (HIV-1; Table 1): not active
Cc1cccc(C)c1OCC(=O)NC(Cc1ccccc1)C(O)CC(CC(C)C)NC(=O)C(C(C)C)N1CCCN(C)C1=O (stereo not drawn) [(68)]	5			
CC(C)C[C@@H](C[C@H](O)[C@H](Cc1ccccc1)NC(=O)[C@@H](NC(=O)OCc1ccccc1)C(C)C)NC(=O)c1cccc(O)c1 [Compound (60)]	> 10	0.198	910	Ki (plasmepsin II): 2.4 nM; Ki (HIV-1 protease; Table 2, read-out: HIV-1 Ki): 0.198 nM
